For assay [1], the system named is HIV-1. The following applies: plasma, cited from earlier work; for 4×PA-IC90: four times protein-adjusted 90% inhibitory concentration.
The subject of assay [2] is HIV-1ADA. The experiment in a line: Antiretroviral efficacy of prodrugs by HIV reverse transcriptase (RT) activity in MDM. The following applies: MDM treated 8 hours, 0.01-1000 nM, challenged with HIV-1ADA MOI 0.01; FIG. 2A. It counts as cell-based. As for the experimental part:
The DTG prodrugs M3DTG and M4DTG were studied. First, antiretroviral efficacy was determined by measurement of HIV reverse transcriptase (RT) activity. To assess antiretroviral efficacy, monocyte-derived macrophage (MDM) were treated with either M3DTG or M4DTG for 8 hours over a range of concentrations (0.01-1000 nM). Drug was dosed in 0.1% (v/v) DMSO in media. After treatment, cells were washed with PBS to remove excess of free drug and nanoparticles and the cells were cultured with fresh media, with half-media exchanges every other day. The MDM were challenged with HIV-1ADA at a MOI of 0.01 infectious viral particles/cell for up to 30 days. Progeny virion production was measured by RT activity in culture medium (Kalter, et al. (1992) J. Clin. Microbiol., 30(4):993-995).

The structures appear in SMILES notation.

The values that follow come from patent US12257306B2, “Antiviral prodrugs and nanoformulations thereof” (Board of Regents of the University of Nebraska, priority 2018, dated 2025).

As for `C[C@H]1CO[C@@H]2Cn3cc(C(=O)NCc4ccc(F)cc4F)c(=O)c(O)c3C(=O)N12` [CAB, cabotegravir], the “4×PA-IC90” value in assay [1] was 0.66 µg/mL.
Turning to `C[C@@H]1CCO[C@H]2Cn3cc(C(=O)NCc4ccc(F)cc4F)c(=O)c(O)c3C(=O)N12` [DTG, dolutegravir], the “4×PA-IC90” value in assay [1] is 0.256 µg/mL. For the same compound, the PA-IC90 in assay [1] (protein-adjusted 90% inhibitory concentration) was 0.064 µg/mL.
Take `C[C@@H]1CCO[C@H]2Cn3cc(C(=O)NCc4ccc(F)cc4F)c(=O)c(OC(=O)CCCCCCCC(=O)Oc4c5n(cc(C(=O)NCc6ccc(F)cc6F)c4=O)C[C@@H]4OCC[C@@H](C)N4C5=O)c3C(=O)N12` [M3DTG]: the “antiretroviral activity (HIV-1 RT activity)” value in assay [2] is on record as “significant antiretroviral activity”.
